Source: PMC3649849 (Journal of the American Chemical Society, 2013)

Key:
[1] = target: L232A mutant TbbTIM (Trypanosoma brucei brucei, UniProt P04789, L232A); assay: Competitive inhibition of TIM-catalyzed isomerization of GAP by phosphoglycolate; format: biochemical
[2] = target: wildtype TbbTIM (triosephosphate isomerase) (Trypanosoma brucei brucei, UniProt P04789); assay: as above; format: biochemical; conditions: relative to 14 kcal/mol estimated for GAP
[3] = I = 0.05 (KCl); cited from earlier work
[4] = system: I172A mutant TbbTIM; assay: Competitive inhibition of TIM-catalyzed isomerization of GAP by phosphoglycolate; format: biochemical, Trypanosoma brucei brucei; conditions: pH < 6

O=C(O)COP(=O)(O)O [PGA, Phosphoglycolate]
fold increase in the affinity of the enzyme for I^3− from the L232A mutation ([1]; pH 8.3, relative to wildtype): 20 fold | Ki ([1]; read-out: Ki for inhibition by PGA trianion I^3−, pH 8.3, 25 °C, I = 0.1 (NaCl)): 12 µM | fraction of the total intrinsic transition state binding energy for TIM expressed [2]: ~ 80% | pKa for ionization of HI^2− to form I^3− [3]: 6.5 | fold lower affinity of the mutant compared with the wildtype enzyme for I^3− [4]: 100 fold
